Experimental data from patent publication US9534059B2, “TIKI inhibitors” (Children's Medical Center Corporation, priority 2012, dated 2017).

Assays:
Type in all cases: in vivo
Tiki1 [1] = biological target: T1, Tiki1 (Xenopus tropicalis, UniProt F6PTN1); assay: Whole mount in situ hybridization of organizer gene expression in MO-injected embryos (FIGS. 3D and 3F)
T1 construct: Thus the endogenous Tiki1 in the Organizer acts in both Wnt-producing and Wnt-responding cells; endogenous in cells; host or cells: Xenopus embryos (dorsal blastomeres / organizer)
T1 sequence (F6PTN1 24-480): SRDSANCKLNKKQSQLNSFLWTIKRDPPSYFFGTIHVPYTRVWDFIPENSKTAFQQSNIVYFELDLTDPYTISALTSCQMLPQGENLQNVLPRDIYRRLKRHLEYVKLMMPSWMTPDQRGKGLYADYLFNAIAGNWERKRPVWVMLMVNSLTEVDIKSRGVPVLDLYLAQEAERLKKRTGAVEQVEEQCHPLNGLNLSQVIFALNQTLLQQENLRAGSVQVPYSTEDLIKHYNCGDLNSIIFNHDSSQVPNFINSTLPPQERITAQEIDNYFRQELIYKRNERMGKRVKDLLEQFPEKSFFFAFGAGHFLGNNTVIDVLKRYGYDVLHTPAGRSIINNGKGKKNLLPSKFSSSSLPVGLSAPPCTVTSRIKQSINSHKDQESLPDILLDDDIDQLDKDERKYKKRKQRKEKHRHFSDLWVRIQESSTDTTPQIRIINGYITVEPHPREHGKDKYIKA
Protocol: (D) Tiki1 is required for the head organizer. Mid-gastrula embryos (stage 10.5-11) were examined by whole mount in situ hybridization.
(F) Tiki1MO reduces Goosecoid expression in prechordal plate at stage 13. 20 ng of control MO, Tiki1MO or Tiki1MO plus 50 pg of HA*Tiki1 mRNA were injected into two dorsal blastomeres at the 8-cell stage. Injected embryos were subjected to whole mount in situ hybridization with the Gsc probe at stage 13 (dorsal view with anterior up).
(§1) Procedures for embryo manipulation, reverse transcription PCR and in situ hybridization were performed as previously described (Tamai et al., 2000). The arrayed Xenopus tropicalis full length cDNAs (Voigt et al., 2005) were used for the screening as performed previously (Kato et al., 2002). cDNA pools (in the CS107 vector) that contain 96 independent clones were transcribed in vitro using SP6 polymerase, and the resulting mRNA pools were injected into the dorsal side of the embryo at 4-cell stage at the dose of 10 ng RNA/embryo. Injected embryos were scored at stage 30-31 for enlarged or diminished anterior development. The positive pools were divided into smaller pools and the same process was repeated till a single cDNA was identified.
(§2) The following morpholino oligonucleotides were used: Tiki1 MO: 5′-[…]-3′ (SEQ ID NO:33); standard control MO: 5′-[…]-3′ (SEQ ID NO:34) (Gene Tools, LLC). RT-PCR primers for XTiki1: Forward, 5′-[…]-3′(SEQ ID NO:35), Reverse, 5′-[…]-3′(SEQ ID NO:36); human TIKI1: Forward, 5′-[…]-3′(SEQ ID NO:37), Reverse, 5′-[…]-3′(SEQ ID NO:38); human TIKI2: Forward, 5′-[…]-3′(SEQ ID NO:39), Reverse, 5′-[…]-3′(SEQ ID NO:40).
(§3) Further, injection of Tiki1MO in two dorsal blastomeres of 8-cell stage embryos suppressed the expression of head organizer genes including Goosecoid (Gsc), Lim1, Otx2, and Dkk1 in gastrula stage embryos (stages 10.5-11) (FIG. 3D and Table 1). […] HA*Tiki1 mRNA injection rescued the effect of Tiki1MO on all head organizer genes examined (FIG. 3D and Table 1). […] Consistently, Tiki1 inhibited Xwnt8 posterizing effect when both were co-expressed dorsally via injected plasmids, which zygotically express Tiki1 and Xwnt8, respectively, after mid-blastula transition (FIG. 3H).

Tiki1 [2] = biological target: T1, Tiki1; assay: MO block of Tiki1 protein synthesis in animal caps, Western blotting; conditions: animal caps stage 10
Protocol: (A) 500 pg mRNA for Tiki1-FLAG (targeted by MO) or HA*Tiki1 (resistant to MO) were injected with or without the Tiki1MO (5, 10, 20, 40 ng) into the animal pole at the 2-cell stage, and animal caps were dissected at stage 10 for Western blotting. MO, morpholino antisense oligonucleotide.
20 ng of Tiki1MO were injected into two dorsal blastomeres of 8-cell stage embryos. […] Co-injection of HA*Tiki1 mRNA rescued Tiki1MO phenotypes (FIGS. 3B and 3C). Supporting a role of Tiki1 in Wnt inhibition during head formation, Dkk1 mRNA injection also rescued Tiki1MO anterior deficiency phenotypes (FIG. 3E).

Tiki1 [3] = biological target: T1, Tiki1; assay: Time course of Goosecoid expression in MO-injected embryos, whole mount in situ hybridization (FIG. 3G)
Protocol: (G) Tiki1MO reduced SO-specific Goosecoid expression at stage 11 but not prior to stage 10.5. Time course of Gsc expression was examined between stage 8.5 and 11. 20 ng of Tiki1MO or control MO was injected into two dorsal blastomeres at the 8-cell stage. After Injection embryos were cultured at 22° C. till indicated stages, and were subjected to whole mount in situ hybridization (vegetal view with dorsal up).
as §1, §2, §3

[4] = gene Chd, stage 10.5-11, 20 ng MO
[5] = gene Dkk1, stage 10.5-11, 20 ng MO
[6] = gene Gsc in prechordal plate, stage 13, 20 ng MO
[7] = gene Gsc, stage 10.5-11, 20 ng MO
[8] = gene Lim1, stage 10.5-11, 20 ng MO
[9] = gene Otx2, stage 10.5-11, 20 ng MO
[10] = gene Xnot, stage 10.5-11, 20 ng MO
[11] = gene Xnr3, stage 10.5-11, 20 ng MO

Substance: Tiki1 MO: morpholino antisense oligonucleotide against Tiki1, 5′-CCAAATGATTACCATCATAGCTCAG-3′ (SEQ ID NO:33) (all phosphorodiamidate morpholino (PMO))
- Whole embryos displaying change in gene expression: Chd Absent, Percentage (%) (Tiki1 [1]; [4]): 0%
- Whole embryos displaying change in gene expression: Chd NC (No Change), Percentage (%) (Tiki1 [1]; [4]): 64%
- Whole embryos displaying change in gene expression: Chd Reduced, Percentage (%) (Tiki1 [1]; [4]): 36%
- Whole embryos displaying change in gene expression: Dkk1 Absent, Percentage (%) (Tiki1 [1]; [5]): 25%
- Whole embryos displaying change in gene expression: Dkk1 NC (No Change), Percentage (%) (Tiki1 [1]; [5]): 35%
- Whole embryos displaying change in gene expression: Dkk1 Reduced, Percentage (%) (Tiki1 [1]; [5]): 40%
- Whole embryos displaying change in gene expression: Gsc st.13 Absent, Percentage (%) (Tiki1 [1]; [6]): 35%
- Whole embryos displaying change in gene expression: Gsc st.13 NC (No Change), Percentage (%) (Tiki1 [1]; [6]): 33%
- Whole embryos displaying change in gene expression: Gsc st.13 Reduced, Percentage (%) (Tiki1 [1]; [6]): 32%
- Whole embryos displaying change in gene expression: Gsc Absent, Percentage (%) (Tiki1 [1]; [7]): 0%
- Whole embryos displaying change in gene expression: Gsc NC (No Change), Percentage (%) (Tiki1 [1]; [7]): 34%
- Whole embryos displaying change in gene expression: Gsc Reduced, Percentage (%) (Tiki1 [1]; [7]): 66%
- Whole embryos displaying change in gene expression: Lim1 Absent, Percentage (%) (Tiki1 [1]; [8]): 28%
- Whole embryos displaying change in gene expression: Lim1 NC (No Change), Percentage (%) (Tiki1 [1]; [8]): 18%
- Whole embryos displaying change in gene expression: Lim1 Reduced, Percentage (%) (Tiki1 [1]; [8]): 54%
- Whole embryos displaying change in gene expression: Otx2 Absent, Percentage (%) (Tiki1 [1]; [9]): 7%
- Whole embryos displaying change in gene expression: Otx2 NC (No Change), Percentage (%) (Tiki1 [1]; [9]): 33%
- Whole embryos displaying change in gene expression: Otx2 Reduced, Percentage (%) (Tiki1 [1]; [9]): 60%
- Whole embryos displaying change in gene expression: Xnot Absent, Percentage (%) (Tiki1 [1]; [10]): 0%
- Whole embryos displaying change in gene expression: Xnot NC (No Change), Percentage (%) (Tiki1 [1]; [10]): 87%
- Whole embryos displaying change in gene expression: Xnot Reduced, Percentage (%) (Tiki1 [1]; [10]): 13%
- Whole embryos displaying change in gene expression: Xnr3 Absent, Percentage (%) (Tiki1 [1]; [11]): 0%
- Whole embryos displaying change in gene expression: Xnr3 NC (No Change), Percentage (%) (Tiki1 [1]; [11]): 93%
- Whole embryos displaying change in gene expression: Xnr3 Reduced, Percentage (%) (Tiki1 [1]; [11]): 7%
- Synthesis of exogenously expressed Tiki1-FLAG (Tiki1 [2]; 5, 10, 20, 40 ng MO): specifically blocked the synthesis
- Synthesis of HA*Tiki1 (mRNA lacking the MO complementary sequence) (Tiki1 [2]): unable to block the synthesis
- Whole embryos displaying change in Goosecoid expression: Absent, Percentage (%) (Tiki1 [3]; stage 8.5, 20 ng MO): 0%
- Whole embryos displaying change in Goosecoid expression: NC (No Change), Percentage (%) (Tiki1 [3]; stage 8.5, 20 ng MO): 100%
- Whole embryos displaying change in Goosecoid expression: Reduced, Percentage (%) (Tiki1 [3]; stage 8.5, 20 ng MO): 0%
- Whole embryos displaying change in Goosecoid expression: Absent, Percentage (%) (Tiki1 [3]; stage 9.5, 20 ng MO): 13%
- Whole embryos displaying change in Goosecoid expression: NC (No Change), Percentage (%) (Tiki1 [3]; stage 9.5, 20 ng MO): 87%
- Whole embryos displaying change in Goosecoid expression: Reduced, Percentage (%) (Tiki1 [3]; stage 9.5, 20 ng MO): 0%
- Whole embryos displaying change in Goosecoid expression: Absent, Percentage (%) (Tiki1 [3]; stage 10, 20 ng MO): 15%
- Whole embryos displaying change in Goosecoid expression: NC (No Change), Percentage (%) (Tiki1 [3]; stage 10, 20 ng MO): 85%
- Whole embryos displaying change in Goosecoid expression: Reduced, Percentage (%) (Tiki1 [3]; stage 10, 20 ng MO): 0%
- Whole embryos displaying change in Goosecoid expression: Absent, Percentage (%) (Tiki1 [3]; stage 10.5, 20 ng MO): 5%
- Whole embryos displaying change in Goosecoid expression: NC (No Change), Percentage (%) (Tiki1 [3]; stage 10.5, 20 ng MO): 80%
- Whole embryos displaying change in Goosecoid expression: Reduced, Percentage (%) (Tiki1 [3]; stage 10.5, 20 ng MO): 15%
- Whole embryos displaying change in Goosecoid expression: Absent, Percentage (%) (Tiki1 [3]; stage 11, 20 ng MO): 48%
- Whole embryos displaying change in Goosecoid expression: NC (No Change), Percentage (%) (Tiki1 [3]; stage 11, 20 ng MO): 27%
- Whole embryos displaying change in Goosecoid expression: Reduced, Percentage (%) (Tiki1 [3]; stage 11, 20 ng MO): 25%
